Experiments:
Type in all cases: biochemical
thrombin = target: T1, thrombin (Homo sapiens, UniProt P00734); assay: Determination of selectivity: thrombin inhibition (chromogenic substrate GPR); settings: fold selectivity for FXIIa over thrombin (human); category
T1 construct: FXa (5 nM) and thrombin (5 nM)
Protocol: (§1) The activities of the compounds of the invention have been determined in vitro using the following assays protocols for the screening of activity of FXIIa and other proteases. Each of these assays were performed in a purified system employing the use of chromogenic assays in microplate plate wells. Chromogenic peptide substrates mimicking natural protein substrates are attached via an amide bond to a chromogenic group. Paranitroaniline (pNA) is released from the peptide following catalyses by the proteolytic enzyme; the absorbance increases and can be monitored at 405 nm.
(§2) All compounds were dissolved in 100% (v/v) DMSO to a stock concentration of 10 mM, the highest concentration of compound used in each assay is 500 μM. The final concentrations of DMSO were 5% (v/v) in 50 mM Tris 137 mM NaCl pH 7.4. Where no test compound was added a final concentration of 5% DMSO was employed.
(§3) To determine selectivity of test compounds, these test compounds were assayed for inhibitory activity against other serine proteases including FXa and thrombin. Essentially compounds at increasing concentrations were incubated with each enzyme: FXa (5 nM) and thrombin (5 nM), for 10 mins at 37° C. followed by the appropriate chromogenic substrate, S2765 (Chromogenix) and GPR (Bachem) respectively in 50 mM Tris, 137 mM NaCl, pH 7.4. Substrates were used at a concentration equal to the appropriate experimentally derived KM. Kinetic readings at 405 nm were monitored every 12 secs for a total duration of 3 hours at 37° C. Gradients of initial rates were determined and employed to calculate IC50 values. Values of IC50 were converted to Ki values based on the formula:
(§4) Ki═IC50/(1+[Substrate]/Km)
(§5) Where [Substrate] denotes the concentration of substrate used in the assay and Km is the determined value of each enzyme with its own substrate.
The fold selectivity for FXIIa over thrombin for the compounds of the invention has been categorised based on the fold selectivity values, the categories being “+”, “++” and “+++”. The category “+” refers to fold selectivity values less than 10 (e.g. a fold selectivity value of less than 10 and greater than 1). The category “++” refers to a fold selectivity value of 10 to 100. The category “+++” refers to fold selectivity values greater than 100.

FXa = FXa (Homo sapiens, UniProt P00742); assay: Determination of selectivity: FXa inhibition (chromogenic substrate S2765); settings: fold selectivity for FXIIa over FXa (human); category
Sequence of FXa (P00742 235-488 limits assumed): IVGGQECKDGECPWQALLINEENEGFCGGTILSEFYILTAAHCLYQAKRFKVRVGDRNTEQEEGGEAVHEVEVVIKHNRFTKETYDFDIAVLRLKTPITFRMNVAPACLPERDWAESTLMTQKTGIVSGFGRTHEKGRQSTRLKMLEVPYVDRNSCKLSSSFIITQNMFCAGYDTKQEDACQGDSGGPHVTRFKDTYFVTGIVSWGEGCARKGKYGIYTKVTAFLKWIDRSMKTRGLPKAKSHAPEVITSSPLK
Sequence of FXa (P00742 41-179 partner limits assumed): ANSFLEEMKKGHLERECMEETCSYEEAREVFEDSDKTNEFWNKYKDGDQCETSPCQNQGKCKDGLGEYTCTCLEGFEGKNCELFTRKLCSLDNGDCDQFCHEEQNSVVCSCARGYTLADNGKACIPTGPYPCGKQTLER
Protocol: as §1, §2, §3, §4, §5
The fold selectivity for FXIIa over FXa for the compounds of the invention has been categorised based on the fold selectivity values, the categories being “o”, “oo” and “ooo”. The category “o” refers to fold selectivity values less than 10 (e.g. a fold selectivity value of less than 10 and greater than 1). The category “oo” refers to a fold selectivity value of 10 to 100. The category “ooo” refers to fold selectivity values greater than 100.

FXIIa = target: T2, FXIIa (Homo sapiens, UniProt P00748); assay: Determination of Factor XIIa inhibition (chromogenic substrate S-2302); settings: human FXIIa alpha, Ki category
T2 construct: FXIIa alpha
T2 sequence (P00748 373-615 limits assumed): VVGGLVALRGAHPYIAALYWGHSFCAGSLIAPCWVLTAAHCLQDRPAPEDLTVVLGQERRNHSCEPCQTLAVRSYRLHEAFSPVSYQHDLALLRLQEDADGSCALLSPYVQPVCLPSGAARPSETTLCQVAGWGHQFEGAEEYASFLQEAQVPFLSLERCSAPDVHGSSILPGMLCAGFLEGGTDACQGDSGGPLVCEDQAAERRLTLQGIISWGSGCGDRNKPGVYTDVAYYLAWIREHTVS
T2 sequence (P00748 20-372 partner limits assumed): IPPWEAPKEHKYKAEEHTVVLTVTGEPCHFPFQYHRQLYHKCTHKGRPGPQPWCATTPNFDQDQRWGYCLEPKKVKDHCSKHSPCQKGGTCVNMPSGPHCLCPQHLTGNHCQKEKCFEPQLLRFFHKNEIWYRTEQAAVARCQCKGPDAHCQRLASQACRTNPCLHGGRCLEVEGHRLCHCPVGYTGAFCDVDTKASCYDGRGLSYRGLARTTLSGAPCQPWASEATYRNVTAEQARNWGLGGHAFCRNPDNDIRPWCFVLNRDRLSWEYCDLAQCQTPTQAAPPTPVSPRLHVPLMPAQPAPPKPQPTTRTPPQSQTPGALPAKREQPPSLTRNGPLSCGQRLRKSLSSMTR
Protocol: as §1, §2
Factor XIIa activity was measured using a chromogenic substrate S-2302 (Chromogenix). Various concentrations of compound were incubated with 10 nM of FXIIa and incubated at 37° C. for 10 minutes in 50 mM Tris, 137 mM NaCl, pH 7.4, prior to the addition of the chromogenic substrate S-2302 at a concentration equal the to the experimentally derived KM. Kinetic readings at 405 nm were monitored every 12 secs for a total duration of 3 hours at 37° C. Gradients of initial rates were determined and employed to calculate IC50 values.
The activity of the compounds of the invention has been categorised based on the Ki values, the categories being “†”, “*”, “**” and “***”. […] The category “**” refers to compounds with a Ki value of 0.2 μM to 0.8 μM.
as §4, §5

SMILES	Thrombin (human)/FXIIa alpha (human) (thrombin)	FXa (human)/FXIIa alpha (human) (FXa)	Ki (FXIIa)
CCCc1ccc(C[C@@H]2C[C@@H](C(=O)NCc3ccc4c(c3)nnn4C)N(C(=O)[C@@H]3NCCC[C@@H]3C(=O)N3CCCC3)C2)cc1 [Example M05935]	+++ (fold selectivity values greater than 100)	∘∘∘	200 to 800 nM
Cn1ncc2cc(CNC(=O)[C@@H]3C[C@@H](Cc4ccc(C(F)(F)F)cc4)CN3C(=O)[C@@H]3NCCC[C@@H]3C(=O)N3CCCC3)ccc21 [Example M05788, (2S,4R)-N-((1-methyl-1H-indazol-5-yl)methyl)-1-((2R,3S)-3-(pyrrolidine-1-carbonyl)piperidine-2-carbonyl)-4-(4-(trifluoromethyl)benzyl)pyrrolidine-2-carboxamide]	+++ (fold selectivity values greater than 100)	∘∘∘	< 200 nM
Cc1ccc2c(c1)CCN2C1C[C@@H](C(=O)NCc2ccc3c(cnn3C)c2)N(C(=O)[C@@H]2NCCC[C@@H]2C(=O)N2CCCC2)C1 (single isomer, unassigned) [Example M05839]	+++ (fold selectivity values greater than 100)	∘∘∘	200 to 800 nM
Cc1ccc(C[C@@H]2C[C@@H](C(=O)NCc3ccc4c(cnn4C)c3)N(C(=O)[C@@H]3NCCC[C@@H]3C(=O)N3CC[C@H](F)C3)C2)cc1 [Example M05777, (2S,4R)-1-((2R,3S)-3-((S)-3-fluoropyrrolidine-1-carbonyl)piperidine-2-carbonyl)-N-((1-methyl-1H-indazol-5-yl)methyl)-4-(4-methylbenzyl)pyrrolidine-2-carboxamide]	+++ (fold selectivity values greater than 100)	∘∘∘	200 to 800 nM
Cn1ncc2cc(CNC(=O)[C@@H]3C[C@@H](Cc4ccncc4)CN3C(=O)[C@@H]3NCCC[C@@H]3C(=O)N3CCCC3)ccc21 [Example M05811, (2S,4R)-N-((1-methyl-1H-indazol-5-yl)methyl)-4-(pyridin-4-ylmethyl)-1-((2R,3S)-3-(pyrrolidine-1-carbonyl)piperidine-2-carbonyl)pyrrolidine-2-carboxamide]	++ (a fold selectivity value of 10 to 100)	∘∘∘	800 to 5000 nM
Cn1nnc2cc(CNC(=O)[C@@H]3C[C@@H](Cc4ccc5ccccc5c4)CN3C(=O)[C@@H]3NCCC[C@@H]3C(=O)N3CCCC3)ccc21 [Example M05881, (2S,4R)-N-((1-methyl-1H-benzo[d][1,2,3]triazol-5-yl)methyl)-4-(naphthalen-2-ylmethyl)-1-((2R,3S)-3-(pyrrolidine-1-carbonyl)piperidine-2-carbonyl)pyrrolidine-2-carboxamide]	+++ (fold selectivity values greater than 100)	∘∘∘	< 200 nM
COc1ccc(C[C@@H]2C[C@@H](C(=O)NCc3ccc4c(c3)nnn4C)N(C(=O)[C@@H]3NCCC[C@@H]3C(=O)N3CCCC3)C2)cc1 [Example M04490]	+++ (fold selectivity values greater than 100)	∘∘∘	< 200 nM
Cc1ccc(C[C@@H]2C[C@@H](C(=O)NCc3ccc4c(cnn4C)c3)N(C(=O)[C@@H]3NCCC[C@@H]3C(=O)N3C4CCC3CC4)C2)cc1 [Example M05804, (2S,4R)-1-((2R,3S)-3-(7-azabicyclo[2.2.1]heptane-7-carbonyl)piperidine-2-carbonyl)-N-((1-methyl-1H-indazol-5-yl)methyl)-4-(4-methylbenzyl)pyrrolidine-2-carboxamide]	+++ (fold selectivity values greater than 100)	∘∘∘	200 to 800 nM
Cn1ncc2cc(CNC(=O)[C@@H]3C[C@@H](Cc4cc(C5CC5)on4)CN3C(=O)[C@@H]3NCCC[C@@H]3C(=O)N3CCC[C@@H]3C(F)(F)F)ccc21 [Example M06047, (2S,4S)-4-+(5-cyclopropylisoxazol-3-yl)methyl+-N-+(1-methylindazol-5-yl)methyl+-1-+(2R,3S)-3-+(2R)-2-(trifluoromethyl)pyrrolidine-1-carbonyl+piperidine-2-carbonyl+pyrrolidine-2-carboxamide]	+++ (fold selectivity values greater than 100)	∘∘∘	< 200 nM
O=C(NCc1cc2cnccc2[nH]1)[C@@H]1C[C@H](C(F)(F)F)CN1C(=O)[C@@H]1NCCC[C@@H]1C(=O)N1CCCC1 [Example M05720, (2S,4S)-N-((1H-pyrrolo[3,2-c]pyridin-2-yl)methyl)-1-((2R,3S)-3-(pyrrolidine-1-carbonyl)piperidine-2-carbonyl)-4-(trifluoromethyl)pyrrolidine-2-carboxamide]	+++ (fold selectivity values greater than 100)	∘∘∘	< 200 nM
COc1nn(C)c2ccc(CNC(=O)[C@@H]3C[C@@H](Cc4ccc(C)cc4)CN3C(=O)[C@@H]3NCCC[C@@H]3C(=O)N3CCCC3)cc12 [Example M05810, (2S,4R)-N-((3-methoxy-1-methyl-1H-indazol-5-yl)methyl)-4-(4-methylbenzyl)-1-((2R,3S)-3-(pyrrolidine-1-carbonyl)piperidine-2-carbonyl)pyrrolidine-2-carboxamide]	++ (a fold selectivity value of 10 to 100)	∘∘	800 to 5000 nM
Cc1ccc(C[C@@H]2C[C@@H](C(=O)NCc3ccc4c(cnn4C)c3)N(C(=O)[C@@H]3NCCC[C@@H]3C(=O)N3CC[C@H](N(C)C)C3)C2)cc1 [Example M06013, (2S,4R)-1-((2R,3S)-3-((S)-3-(dimethylamino)pyrrolidine-1-carbonyl)piperidine-2-carbonyl)-N-((1-methyl-1H-indazol-5-yl)methyl)-4-(4-methylbenzyl)pyrrolidine-2-carboxamide]	+++ (fold selectivity values greater than 100)	∘∘∘	< 200 nM
